In US7879853B2, “4,6-disubstituted pyrimidines and their use as protein kinase inhibitors” (Bayer Schering Pharma AG, priority 2004, dated 2011):

What was measured:
[1] = molecular target: T1, Akt1 (full-length Akt1, active) (Homo sapiens, UniProt P31749); experiment: Biochemical Akt1 (active) assay (full-length Akt1), flashplate, Crosstide; details: Crosstide substrate, 100 nM ATP, 60 minutes at 30° C.; read-out: Akt1 inhibition (full-length Akt1, active): IC50
T1 construct: recombinant full-length human Akt1, containing N-terminal His6 tag; His6 (N); GST (alternative statement of the assay paragraph) (N); purchased Upstate, UK #14-276; host or cells: baculovirus infected Sf21 insect cells
Excerpt: For the biochemical Akt1 assay recombinant full-length human Akt1, containing N-terminal His6 tag was cloned and expressed in baculovirus infected Sf21 insect cells. Akt1 is activated with GST-MAPKAP-K2 and PDK1, and repurified on Ni2+/NTA-agrose and glutathioneagarose (Upstate, UK; #14-276).
In order to study the inhibition of Akt1 (full-length version) according to the invention, a flashplate-based assay has been developed.
The full-length Akt1 assay is a biochemical assay using Akt1 N-terminally fused to GST and co-expressed with PDK1 in insect cells. The Akt1 assay is run in 96 well plates by incubating 500 ng/well GST-Akt1, 1 μM Crosstide (N-terminally biotinylated synthetic peptide (KGSGSGRPRTSSFAEG) Upstate, #12-385) as substrate, 10 μl of test compound (test compounds were dissolved as 10 mM solutions in dimethylsulfoxide (DMSO) and subsequently diluted) and 100 nM ATP (including ^33P-ATP) in 100 μl of reaction buffer (50 mM HEPES, pH7.5; 3 mM MgCl2; 3 mM MnCl2; 3 μM Na-Orthovanadat; 1 mM DTT; 1 μg/ml PEG8000) for 60 minutes at 30° C. in 96 well microtiter plates. The reactions are terminated by adding 100 μl stopping buffer (5M NaCl, 35 mM EDTA pH 8,0) for 5 minutes. 190 μl of the reaction mixture are transferred into streptavidin-coated Flashplates (Perkin Elmer, #SMP-103) and incubated for further 30 minutes at room temperature. The plates are washed 3 times by using washing buffer (0.9% NaCl). Relying on the incorporation of ^33P into the peptide substrate crosstide, the detection is based on the specific binding of the biotinylated peptide to the streptavidin-coated surface of scintillator-coated flash plates (NEN, USA; #SMP-103). This phosphorylation is measured by counting the plate for 60 sec. using a plate reader (Wallac Microbeta; Perkin Elmer, USA). The analysis of the data is performed using a biostatistical program (GraphPad Prism, USA).

MDA-MB-468 cells = experiment: Cellular proliferation/cytotoxicity assay (Alamar Blue), MDA-MB-468; assay type: cell-based; details: Homo sapiens; MDA-MB-468, 48 hours, Alamar Blue (Resazurin); read-out: Anti-proliferative/cytotoxic activity: IC50 MDA468
Procedure: (§1) The anti-proliferative activity of the compounds as described herein, is evaluated using MCF7 and MDA-MB-468 (ATCC HTB-22 and HTB-132) cell lines and the Alamar Blue (Resazurin) cell viability assay (O'Brien et al. Eur J Biochem 267, 5421-5426, 2000). Resazurin is reduced to the fluorescent rescrufin by cellular dehydrogenase activity, correlating with viable, proliferating cells. Test compounds are dissolved as 10 mM solutions in DMSO and subsequently diluted. MCF7 or […] cells were seeded into 96 well flat bottom plates at a density of 10000 cells/well (MCF7) or 5000 cells/well (MDA-MB-468) in a volume of 200 μl/well. 24 hours after seeding, 1 μl each of the compound dilutions are added into each well of the 96 well plates. Each compound dilution is tested as at least as duplicates. Wells containing untreated control cells were filled with 200 μl DMEM containing 0.5% v:v DMSO. The cells are then incubated with the substances for 48 hours at 37° C. in a humidified atmosphere containing 5% carbon dioxide. To determine cell viability, 20 μl of a Resazurin solution (Sigma; 90 mg/l) are added. After 4 hours incubation at 37° C. the fluorescence is measured at an extinction of 544 nm and an emission of 590 nm (Wallac Victor2; Perkin Elmer, USA). For the calculation of the cell viability the emission value from untreated cells is set as 100% viability and the emission rates of treated cells are set in relation to the values of untreated cells. Viabilities are expressed as % values. The corresponding IC50 values of the compounds for cytotoxic activity are determined from the concentration-effect curves by means of non-linear regression. The analysis of the data is performed using a biostatistical program (GraphPad Prism, USA).

MCF7 cells = experiment: Cellular proliferation/cytotoxicity assay (Alamar Blue), MCF7; assay type: cell-based; details: Homo sapiens; MCF7, 48 hours, Alamar Blue (Resazurin); read-out: Anti-proliferative/cytotoxic activity: IC50 MCF7
Procedure: as §1

[2] = molecular target: T2, Akt1 (full-length Akt1, inactive) (Homo sapiens, UniProt P31749); experiment: Biochemical Akt1 (inactive) assay (full-length Akt1), IMAP, PDK1-dependent activation; details: activation by PDK1 with PIP3 vesicles, 50 μM ATP, 60 min. at room temperature; read-out: Inhibition of Akt1 activation (full-length Akt1, inactive): IC50
T2 construct: recombinant full-length human Akt1 a containing N-terminal His6 tag; His6 (N); purchased Upstate, UK #14-279; host or cells: baculovirus infected Sf21 insect cells
Procedure: The enzyme is purified using Ni2+/NTA-agarose (Upstate, UK; #14-279).
The enzyme is purified using Ni2+/NTA-agarose.
PDK1-dependent activation and subsequent enzymatic activity of Akt1: Activity of purified human Akt1 is routinely measured in an assay in which the enzyme is first activated by PDK1 in the presence of phosphatidylinositol-3,4,5-triphosphate (PIP3). Once activated, Akt1-dependent phosphorylation of a fluorescence labelled peptide substrate is measured by fluorescence polarisation using the IMAP technology (Molecular Devices).
The phospholipids are prepared as follows: 5 mg DOPC/DOPS are solved in 200 μl 10 mM Tris (pH 7.4) and 300 μg PIP3 are resuspended in 950 μl 10 mM Tris (pH 7.4) by pipetting. 950 μl solved PIP3 are mixed with 50 μl solved DOPC/DOPS and incubated for 2 h at a temperature below 20° C. Then the mixture is subjected to sonification for 30 min. at max. power until a translucent phopholipid vesicle preparation is obtained. Aliquots of the vesicle suspension are frozen at −80° C. until needed, likewise the solved DOPC/DOPS.
Assays are performed in 384-well plates. Incubations are carried out for 60 min. at room temperature. The reaction buffer mixture contains in a final volume of 25 μl: 10 mM Tris pH 7.4, 10 mM MgCl2. 1 mM DTT, and 0,1 mg/ml BSA. In contrast the activation buffer contains: 50 ng/well Akt1, 20 ng/well PDK1, 1.25 μM peptide substrat, 50 μM ATP, and phospholipid vesicles (1:20). Test compounds are added from stock solutions in DMSO before activation of Akt1 by PDK1. After the incubation the beads (IMAP binding reagent; Molecular Devices; 1:167) are added and the fluorescence polarization is measured (excitation 485 nm, emission 530 nm). The analysis of the data is performed using a biostatistical program.

GST-ΔPH-Akt1 = molecular target: T3, GST-ΔPH-Akt1 (Homo sapiens, UniProt P31749); experiment: Biochemical ΔPH Akt1 assay (flashplate, 33P-ATP, histone 2B); details: GST-ΔPH-Akt1, histone 2B substrate, 100 nM ATP, 80 minutes at 30° C.; read-out: Akt inhibition: IC50 (inhibition of deltaPHAkt1)
T3 construct: named GST-deltaPH-Akt1; 107480aa; cloned in the pAcG1 vector; made in house; host or cells: SF9 insect cells (pAcG1 vector), co-expressed with PDK1
Excerpt: For the biochemical assay ΔPHAkt1 was used devoid of its PH domain as a GST fusion protein (named GST-deltaPH-Akt1; 107480aa; cloned in the pAcG1 vector (BD Biosciences Pharmingen)), co-expressed with PDK1 in SF9 insect cells. The protein was purified using glutathion-affinity chromatography by standard protocols.
In order to study the inhibition of Akt according to the invention, a flashplate-based assay has been developed.
The Akt1 assay is a biochemical assay using Akt1 devoid of its PH domain and co-expressed with PDK1 in insect cells. The GST-ΔPH-Akt1 assay is run in 96 well plates by incubating 100 ng/well GST-ΔPH-Akt1, 100 ng/well histone 2B (Roche, #223514) as substrate, 10 μl of compound of invention (test compounds were dissolved as 10 mM solutions in dimethylsulfoxide (DMSO) and subsequently diluted) and 100 nM ATP (including ^33P-ATP) in 100 μl of reaction buffer ([…], pH7.5; 3 mM MgCl2; 3 mM MnCl2; 3 μM Na-Orthovanadat; 1 mM DTT; 1 μg/ml PEG8000) for 80 minutes at 30° C. The reactions are terminated by adding 100 μl stopping buffer (2% H3PO4 for 5 minutes) and are washed 3 times by using washing buffer (0.9% NaCl). Relying on the incorporation of ^33P into the protein substrate histone 2B, the detection is based on the adhesion of the phosphorylated protein to the surface of scintillator-coated flash plates (NEN, USA; #SMP-200). This phosphorylation is measured by counting the plate for 60 sec. using a plate reader (Wallac Microbeta; Perkin Elmer, USA). The analysis of the data is performed using a biostatistical program (GraphPad Prism, USA).

T1 sequence (P31749 whole entry): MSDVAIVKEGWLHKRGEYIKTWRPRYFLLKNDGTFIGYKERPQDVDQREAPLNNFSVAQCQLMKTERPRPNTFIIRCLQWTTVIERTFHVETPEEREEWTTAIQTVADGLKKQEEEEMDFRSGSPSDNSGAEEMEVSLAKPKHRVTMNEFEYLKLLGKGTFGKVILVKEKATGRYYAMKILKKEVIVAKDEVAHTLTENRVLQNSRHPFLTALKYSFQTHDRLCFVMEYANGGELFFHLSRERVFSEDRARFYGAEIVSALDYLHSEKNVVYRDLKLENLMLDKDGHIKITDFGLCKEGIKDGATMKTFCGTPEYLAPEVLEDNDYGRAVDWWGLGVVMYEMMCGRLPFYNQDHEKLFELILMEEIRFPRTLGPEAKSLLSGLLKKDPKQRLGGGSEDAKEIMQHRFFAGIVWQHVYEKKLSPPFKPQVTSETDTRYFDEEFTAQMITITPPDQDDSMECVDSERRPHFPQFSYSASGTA
T2 sequence (P31749 whole entry): as above
T3 sequence (P31749 107-480 limits assumed, stated change not applied): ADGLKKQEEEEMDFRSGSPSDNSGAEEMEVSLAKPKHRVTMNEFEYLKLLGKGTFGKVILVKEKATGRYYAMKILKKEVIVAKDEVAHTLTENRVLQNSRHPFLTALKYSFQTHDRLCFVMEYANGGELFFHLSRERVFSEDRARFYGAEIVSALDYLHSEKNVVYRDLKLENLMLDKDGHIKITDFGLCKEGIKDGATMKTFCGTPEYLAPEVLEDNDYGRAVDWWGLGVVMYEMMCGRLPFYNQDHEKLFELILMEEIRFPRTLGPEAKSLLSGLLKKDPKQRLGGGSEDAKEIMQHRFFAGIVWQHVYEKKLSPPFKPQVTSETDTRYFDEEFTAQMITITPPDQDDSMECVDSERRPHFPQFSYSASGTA

melting point [°C] | IC50 [1] [µM] | IC50 [2] [µM] | IC50 (GST-ΔPH-Akt1) [µM] | Compound | IC50 (MDA-MB-468 cells) [µM] | IC50 (MCF7 cells) [µM]
183 to 186 | ≤ 1.75 |  |  | NCc1cccc(C(=O)Nc2ccc(Nc3cc(-c4cccc5c4oc4ccccc45)ncn3)cc2)n1 [Compound 73, 6-Aminomethyl-pyridin-2-carbonsäure-[4-(6-dibenzofuran-4-yl-pyrimidin-4-ylamino)-phenyl]-amide] |  | 
155 to 165 | ≤ 1.75 | ≤ 4.4 |  | NCc1ccc(C(=O)Nc2ccc(Nc3cc(-c4cccc5c4oc4ccccc45)ncn3)cc2)cc1.O=C(O)C(F)(F)F [Compound 49, 4-Aminomethyl-N-[4-(6-dibenzofuran-4-yl-pyrimidin-4-ylamino)-phenyl]-benzamide trifluoroacetate] | ≤ 6.05 | ≤ 16.6
114 | ≤ 1.75 | ≤ 4.4 | ≤ 5 | NCc1ccc(C(=O)Nc2cccc(Nc3cc(-c4cccc5c4oc4ccccc45)ncn3)c2)cc1.O=C(O)C(F)(F)F [Compound 57, 4-Aminomethyl-N-[3-(6-dibenzofuran-4-yl-pyrimidin-4-ylamino)-phenyl]-benzamid trifluoroacetate] |  | 
